Reference: patent publication US9693987B2, “Methods for treating cancers using oral formulations of cytidine analogs” (CELGENE CORPORATION, priority 2011, dated 2017)

Legend:
[1] = system: Nasopharyngeal cancer; experiment: Clinical study Part 1, oral azacitidine alone or with CBDCA or ABX, tumor response; assay type: in vivo, human; settings: Part 1 Arm C
Source text: The study was an open-label, 3-arm, multi-center, dose-escalation study of oral azacitidine in combination with either CBDCA (Arm A), ABX (Arm B), or as a single agent (Arm C) in subjects with relapsed or refractory solid tumors (Part 1). Subjects were assigned to each study Arm at the discretion of the investigator. A minimum of 6 subjects were assigned to each study Arm when a dose level (DL) became open for enrollment. If one (1) or zero (0) out of six (6) subjects in a DL experienced dose limiting toxicity (DLT), the dose of oral azacitidine was escalated in the successive DL. A limited number of oral azacitidine DLs were explored to arrive at a recommended Part 2 dose (RP2D) of oral azacitidine for each study Arm. The RP2D may be the MTD, MAD, or a lower dose depending on the tolerability, PK, and PD observed. Part 1 was followed by expansion cohorts at the RP2D in specific tumor types (Part 2). Approximately 60 subjects were enrolled in Part 1, and approximately 100 subjects were enrolled in Part 2. Safety, efficacy, pharmacokinetics, and pharmacodynamics data were evaluated.
Subjects are evaluated for tumor response after Cycle 2 and every other Cycle thereafter. […]
In one embodiment, in Part 1, Arm C of the study, 5-azacytidine was dosed from Day 1 to Day 21, in a 21-day cycle (continuous). Safety and PD were analyzed. […]

[2] = system: DNA methylation in PBMCs; experiment: DNA hypomethylation in PBMCs of patients (summary); assay type: in vivo, human
Experimental: (§1) In one embodiment, PBMC DNA was used for assessing changes in DNA methylation, using assays such as LINE-1 methylation, %5mdC mass spec, Infinium® Methylation27 Array, and Infinium® Methylation450 Array. In one study, DNA methylation (LINE-1) in PBMC DNAs from patients in clinical studies described in Example 1, dosed with 200 mg oral AZA alone or in combination with CDBCA or ABX, was measured on Days 1, 8, and 15 of 21-day cycle. […] In one study, %5mdC in PBMC DNAs from patients in clinical studies described in Example 1, dosed with 200 mg oral AZA alone or in combination with CDBCA or ABX, was measured on Days 1, 8, and 15 of 21-day cycle. In one study, methylation levels were measured on Days 1, 8, and 15 of 21-day cycle using Infinium® Methylation27 Array (patients dosed with 200 mg oral AZA alone or in combination with CDBCA or ABX) and density profiles of average methylation levels were analyzed. […] In another study, methylation levels were measured using Infinium® Methylation450 Array (patients dosed with 300 mg oral AZA alone or in combination with CDBCA or ABX) and density profiles of average methylation levels were analyzed, as well as % change of hypermethylated loci (beta>0.7) upon treatment.

[3] = system: higher-risk MDS; settings: Phase III study, administered subcutaneously, subjects with higher-risk MDS; cited from earlier work
[4] = system: DNA methylation (LINE-1 and gene-specific); experiment: DNA methylation analysis (LINE-1 or EpiTech Methyl qPCR), MDA-MB-231 cells in vitro; assay type: cell-based
Experimental: (§2) The effects of AZA dose and schedule (short-term vs. extended) on pharmacodynamic markers such as DNMT1 depletion, DNA methylation, and DNA damage were evaluated in MDA-MB-231 breast cancer cells in vitro and in vivo. For in vitro experiments, MDA-MB-231 cells were treated daily with 0.1 or 0.3 μM AZA for up to 12 days, and harvested at various times during treatment, as well as up to 12 days following treatment. For in vivo studies, MDA-MB-231 tumor-bearing mice were dosed (ip) with 1 or 3 mg/kg AZA daily for 3, 7, 14, 21, or 28 days and tumors were harvested during and at several time points after the dosing period. DNA and cell lysates were prepared (from cell pellets or xenograft tumors) for DNA methylation analysis (LINE-1 or EpiTech Methyl qPCR assay) and DNMT1/γH2AX western blotting, respectively.

[5] = system: LINE-1 methylation; experiment: DNA methylation (LINE-1) in PBMC DNAs from patients; assay type: in vivo, human; settings: patients of Example 1, Arm C, 200 mg oral AZA; Days 1, 8 and 15 of 21-day cycle
Experimental: as §1

[6] = system: γH2AX; experiment: γH2AX western blotting (DNA damage), MDA-MB-231 xenograft tumors; assay type: in vivo; settings: MDA-MB-231 tumor-bearing mice
Experimental: as §2

[7] = system: DNMT1; experiment: DNMT1 western blotting, MDA-MB-231 cells in vitro; assay type: cell-based
Experimental: as §2

[8] = system: DNMT1; experiment: DNMT1 western blotting, MDA-MB-231 xenograft tumors; assay type: in vivo, mice
Experimental: as §2

[9] = PK exposure of AZA in patients; assay type: in vivo; settings: human, plasma; oral AZA, patients of the clinical study; read-out: AUCinf of patients in whom decreases in DNA methylation were observed
Experimental: For oral azacitidine, CBDCA, and ABX (administered alone and in combination), the following plasma PK parameters are assessed: (1) maximum observed concentration in plasma (Cmax); (2) area under the concentration-time curve (AUC); (3) time to maximum concentration (tmax); (4) terminal half-life (t1/2); (5) apparent total body clearance (CL/F); and (6) apparent volume of distribution (Vz/F). To evaluate the PD effects of oral azacitidine in blood, plasma, and tumor tissue, the following endpoints are collected: (1) change from baseline (Cycle 1 Day 1 pre-dose) in DNA methylation (global and gene-specific assays) in whole blood and tumor tissue (as available in Part 1); (2) reduction from baseline (Cycle 1 Day 1 predose) in DNMT1 protein levels in tumor tissue (as available in Part 1).

[10] = system: DNA methylation (LINE-1 and gene-specific); experiment: DNA methylation analysis (LINE-1 or EpiTech Methyl qPCR), MDA-MB-231 xenograft tumors; assay type: in vivo; settings: MDA-MB-231 tumors in mice, 1 or 3 mg/kg AZA ip daily; further reduction with additional days of dosing
Experimental: as §2

[11] = system: DNA methylation, hypermethylated loci (beta>0.7); experiment: Infinium Methylation27 Array, PBMC DNA of patients; assay type: in vivo, human; settings: patients dosed with 200 mg oral AZA alone (Arm C) or with CBDCA (Arm A) or ABX (Arm B); Days 1, 8, 15 of 21-day cycle
Experimental: DNA methylation is employed as a biomarker to monitor responses in patients treated with azacitidine in the clinical studies described herein. Analysis is performed with an Infinium Assay (commercially available from Illumina, Inc., San Diego, Calif.). The Infinium Assay combined with BeadChips allows large-scale interrogation of variations in the human genome. For example, the Infinium HumanMethylation27 BeadChip enables interrogation of 27,578 CpG loci, covering over 14,000 genes. […]
The assay for methylation is used to detect methylation status at individual CpG loci by typing bisulfite-converted DNA. […] Blood samples were collected and DNA methylation was analyzed in parallel. In other embodiments, bone marrow samples are collected and DNA methylation analyzed in parallel.
In one embodiment, PBMC DNA was used for assessing changes in DNA methylation, using assays such as LINE-1 methylation, %5mdC mass spec, Infinium® Methylation27 Array, and Infinium® Methylation450 Array. In one study, DNA methylation (LINE-1) in PBMC DNAs from patients in clinical studies described in Example 1, dosed with 200 mg oral AZA alone or in combination with CDBCA or ABX, was measured on Days 1, 8, and 15 of 21-day cycle. […]

[12] = system: Ninety-two cancer cell lines; experiment: In vitro modeling of clinical dosing schema, AZA with CBDCA or ABX, cancer cell line panel; assay type: cell-based; settings: other experiments; some cell lines
Experimental: DNA hypomethylation (e.g., LINE-1, p16) was measured 72 hours after AZA treatment alone or in combination with CBDCA or ABX. p16 (mRNA) re-expression was determined 72 hours after AZA treatment alone or in combination with CBDCA or ABX. Ninety-two cancer cell lines were tested in order to identify specific tumor types that become sensitized to CBDCA or ABX after treatment with AZA (bladder cancer n=8; head and neck cancer n=8, breast cancer n=21; lung cancer n=35; pancreatic cancer n=7; ovarian cancer n=7; and melanoma n=6).

SMILES	Time on Study ([1]; AZA dose 300 mg single agent, nasopharyngeal patient) [mo]	Tumor response ([1]; 5-azacytidine 300 mg Day 1 to Day 21, 21-day cycle, nasopharyngeal cancer)	Patients with DNA hypomethylation in PBMCs / patients analyzed ([2]; 200 mg oral AZA alone (Arm C) or with ABX (Arm B) or CBDCA (Arm A))	Patients with DNA hypomethylation in PBMCs / patients analyzed ([2]; 300 mg oral AZA alone (Arm C) or with CBDCA (Arm A))	Survival and time to AML transformation or death [3]	Time for DNA methylation to return to basal levels upon AZA removal ([4]; MDA-MB-231 cells in vitro) [days]	DNA methylation (LINE-1 and gene-specific) ([4]; MDA-MB-231 cells, 0.1 or 0.3 μM AZA daily, further reduction with additional days of dosing)	DNA methylation (LINE-1) in PBMC DNAs [5]	Days of dosing until DNA damage was observed in tumors ([6]; 1 mg/kg AZA ip daily) [days]	Days of dosing until DNA damage was observed in tumors ([6]; 3 mg/kg AZA ip daily) [days]	Time for DNMT1 protein levels to return to basal levels after AZA treatment was halted ([7]; MDA-MB-231 cells in vitro) [days]	DNMT1 protein level ([7]; MDA-MB-231 cells treated daily with 0.1 or 0.3 μM AZA for up to 12 days)	Time to DNMT1 protein depletion post in vivo dose ([8]; MDA-MB-231 tumor-bearing mice, 1 or 3 mg/kg AZA ip) [h]	DNMT1 protein level ([8]; MDA-MB-231 tumor-bearing mice, 1 or 3 mg/kg AZA ip daily)	Time for DNMT1 protein levels to return to basal levels after AZA treatment was halted ([8]; MDA-MB-231 tumors in mice) [days]	AUC(0-inf) [9] [ng·h/mL]	DNA methylation (LINE-1 and gene-specific) [10]	DNA methylation in PBMCs upon treatment (hypermethylated loci, beta>0.7) [11]	Interaction of DAC (decitabine) priming with ABX [12]	Interaction of DAC (decitabine) priming with CBDCA [12]
Nc1ncn([C@@H]2O[C@H](CO)[C@@H](O)[C@H]2O)c(=O)n1 [AZA, 4-amino-1-β-D-ribofuranosyl-1,3,5-triazin-2(1H)-one]	>3	Partial responses	5/6	3/3	significantly prolonged survival	≤ 8	dose-dependent decrease	Decreases in LINE-1 methylation were observed for two patients	21	14	3 to 4	dose-dependent depletion	≤ 8	dose-dependent depletion	3 to 4	> 350	dose-dependent decrease	decreases in hypermethylated loci	–	–
Nc1ncn([C@H]2C[C@H](O)[C@@H](CO)O2)c(=O)n1 [DAC, 5-aza-2′-deoxycytidine]	–	–	–	–	–	–	–	–	–	–	–	–	–	–	–	–	–	–	antagonism	additivity or synergy
